Reference: article PMC3525726 (Cancer research, 2012)

What was measured:
Assay type in all cases: biochemical
[1] = molecular target: T1, ABCC10 (MRP7) (Homo sapiens, UniProt Q5T3U5); assay: Pi release ATPase stimulation assay; details: 5 mM ATP, Mg2+, pH 7.5, 37 °C; crude membranes
T1 sequence (Q5T3U5 1-1492): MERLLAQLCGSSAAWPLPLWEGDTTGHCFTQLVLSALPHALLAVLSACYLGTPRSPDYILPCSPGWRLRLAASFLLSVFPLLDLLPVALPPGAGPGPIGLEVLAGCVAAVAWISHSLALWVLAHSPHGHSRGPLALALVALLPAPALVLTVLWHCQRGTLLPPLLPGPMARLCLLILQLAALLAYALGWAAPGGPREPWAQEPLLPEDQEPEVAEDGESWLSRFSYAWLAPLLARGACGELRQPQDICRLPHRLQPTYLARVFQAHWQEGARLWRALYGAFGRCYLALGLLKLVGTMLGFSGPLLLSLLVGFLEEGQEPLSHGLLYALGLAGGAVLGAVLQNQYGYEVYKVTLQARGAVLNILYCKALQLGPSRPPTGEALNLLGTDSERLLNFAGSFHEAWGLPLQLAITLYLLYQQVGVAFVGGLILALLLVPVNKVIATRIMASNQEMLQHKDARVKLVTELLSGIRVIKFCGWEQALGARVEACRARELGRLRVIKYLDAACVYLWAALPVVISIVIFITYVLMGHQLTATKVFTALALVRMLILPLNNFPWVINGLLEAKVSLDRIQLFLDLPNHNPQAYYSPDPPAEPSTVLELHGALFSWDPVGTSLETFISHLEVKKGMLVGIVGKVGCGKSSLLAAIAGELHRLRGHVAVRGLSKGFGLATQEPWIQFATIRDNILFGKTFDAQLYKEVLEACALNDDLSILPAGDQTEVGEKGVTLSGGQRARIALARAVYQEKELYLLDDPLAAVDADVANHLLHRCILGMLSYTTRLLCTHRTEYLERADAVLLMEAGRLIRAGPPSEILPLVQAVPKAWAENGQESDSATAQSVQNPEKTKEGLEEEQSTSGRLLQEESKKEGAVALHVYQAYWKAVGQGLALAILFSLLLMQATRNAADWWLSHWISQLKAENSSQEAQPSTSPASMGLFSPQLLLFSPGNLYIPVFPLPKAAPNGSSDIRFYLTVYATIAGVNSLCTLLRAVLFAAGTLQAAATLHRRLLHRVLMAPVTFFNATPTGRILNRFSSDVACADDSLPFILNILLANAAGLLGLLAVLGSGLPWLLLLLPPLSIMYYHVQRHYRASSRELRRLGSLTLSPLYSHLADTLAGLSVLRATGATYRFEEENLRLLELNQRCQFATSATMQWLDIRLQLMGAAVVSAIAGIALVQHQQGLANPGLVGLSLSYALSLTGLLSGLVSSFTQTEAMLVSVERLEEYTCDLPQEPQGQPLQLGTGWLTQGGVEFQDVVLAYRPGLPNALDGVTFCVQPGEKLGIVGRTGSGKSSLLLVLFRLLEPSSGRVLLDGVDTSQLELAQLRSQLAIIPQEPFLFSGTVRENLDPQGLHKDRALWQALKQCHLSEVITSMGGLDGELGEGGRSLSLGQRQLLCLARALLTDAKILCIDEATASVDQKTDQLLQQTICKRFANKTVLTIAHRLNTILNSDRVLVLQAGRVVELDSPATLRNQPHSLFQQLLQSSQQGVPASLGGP

[2] = molecular target: T1, ABCC10 (MRP7); assay: Pi release ATPase stimulation assay; details: 5 mM ATP, Mg2+, pH 7.5, 37 °C; crude membranes; remark: listed apart in the source
[3] = molecular target: T1, ABCC10 (MRP7); assay: Pi release ATPase stimulation assay; details: 5 mM ATP, Mg2+, pH 7.5, 37 °C; crude membranes; remark: listed apart in the source
[4] = molecular target: T1, ABCC10 (MRP7); assay: Pi release ATPase inhibition assay; details: read-out: % inhibition at 0.625 μM
[5] = molecular target: T1, ABCC10 (MRP7); assay: Pi release ATPase inhibition assay; details: 5 mM ATP, Mg2+, pH 7.5, 37 °C; crude membranes

Nc1ccn([C@@H]2O[C@H](CO)[C@@H](O)[C@@H]2O)c(=O)n1 [Ara-C]
% stimulation of ATPase activity at 0.625 μM [1]: 31.8%

C[C@]12CC[C@@H]3c4ccc(O)cc4CC[C@H]3[C@@H]1CC[C@@H]2O[C@@H]1O[C@H](C(=O)O)[C@@H](O)[C@H](O)[C@H]1O [E217βG]
% stimulation of ATPase activity [2]: 30%

CC(=O)O[C@@]12CO[C@@H]1C[C@H](O)[C@@]1(C)C(=O)[C@H](O)C3=C(C)[C@@H](OC(=O)[C@H](O)[C@@H](NC(=O)OC(C)(C)C)c4ccccc4)C[C@@](O)([C@@H](OC(=O)c4ccccc4)[C@H]21)C3(C)C [docetaxel]
% stimulation of ATPase activity at 5 μM [3]: 24.38%

C#Cc1cccc(Nc2ncnc3cc(OCCOC)c(OCCOC)cc23)c1 [erlotinib]
inhibition at 0.625 µM [4]: 47%

Cc1ccc(NC(=O)c2ccc(CN3CCN(C)CC3)cc2)cc1Nc1nccc(-c2cccnc2)n1 [imatinib]
% inhibition at 5 μM [5]: cepharanthine, sorafenib, imatinib, nilotinib, erlotinib and lapatinib were effective inhibitors of ABCC10 ATPase activity

Cc1cn(-c2cc(NC(=O)c3ccc(C)c(Nc4nccc(-c5cccnc5)n4)c3)cc(C(F)(F)F)c2)cn1 [nilotinib]
inhibition at 0.625 µM [4]: 41.4%

CC(=O)O[C@H]1C(=O)[C@@]2(C)[C@H]([C@H](OC(=O)c3ccccc3)[C@]3(O)C[C@H](OC(=O)[C@H](O)[C@@H](NC(=O)c4ccccc4)c4ccccc4)C(C)=C1C3(C)C)[C@]1(OC(C)=O)CO[C@@H]1C[C@@H]2O [paclitaxel]
% stimulation of ATPase activity at 5 μM [3]: 15%

CNC(=O)c1cc(Oc2ccc(NC(=O)Nc3ccc(Cl)c(C(F)(F)F)c3)cc2)ccn1 [sorafenib]
% inhibition at 5 μM [5]: cepharanthine, sorafenib, imatinib, nilotinib, erlotinib and lapatinib were effective inhibitors of ABCC10 ATPase activity
